Measurements taken from PubChem BioAssay AID1963984 (Molecular Pharmacology Branch, DTP, NCI, 2024).

Test system: 233499-124-R-J3-PDC spheroids with HUVEC/MSC, viability
Assay: Anticancer human tumor 233499-124-R-J3-PDC patient-derived colon adenocarcinoma cell line growth inhibition [PI3K]
Settings: for IC50: curve of first compound; for viability, T/C: stronger effect = lower value
In short: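 Complex 3D spheroids (cancer cells + endothelial HUVEC + mesenchymal stem cells); drug pairs of targeted agent x inavolisib/alpelisib/duvelisib/copanlisib; half-log series from ~Cmax, max 10 microM if Cmax unknown; endpoint viability.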

[1] = second compound 0.0316 µM, first compound 0.0316 µM
[2] = second compound 0.0316 µM, first compound 0.1 µM
[3] = second compound 0.0316 µM, first compound 0.316 µM
[4] = second compound 0.0316 µM, first compound 1 µM
[5] = second compound 0.0316 µM, first compound 3.16 µM
[6] = second compound 0.0316 µM, first compound 10 µM
[7] = second compound 0.1 µM, first compound 0.0316 µM
[8] = second compound 0.1 µM, first compound 0.1 µM
[9] = second compound 0.1 µM, first compound 0.316 µM
[10] = second compound 0.1 µM, first compound 1 µM
[11] = second compound 0.1 µM, first compound 3.16 µM
[12] = second compound 0.1 µM, first compound 10 µM
[13] = second compound 0.316 µM, first compound 0.0316 µM
[14] = second compound 0.316 µM, first compound 0.1 µM
[15] = second compound 0.316 µM, first compound 0.316 µM
[16] = second compound 0.316 µM, first compound 1 µM
[17] = second compound 0.316 µM, first compound 3.16 µM
[18] = second compound 0.316 µM, first compound 10 µM
[19] = second compound 1 µM, first compound 0.0316 µM
[20] = second compound 1 µM, first compound 0.1 µM
[21] = second compound 1 µM, first compound 0.316 µM
[22] = second compound 1 µM, first compound 1 µM
[23] = second compound 1 µM, first compound 3.16 µM
[24] = second compound 1 µM, first compound 10 µM
[25] = second compound 3.16 µM, first compound 0.0316 µM
[26] = second compound 3.16 µM, first compound 0.1 µM
[27] = second compound 3.16 µM, first compound 0.316 µM
[28] = second compound 3.16 µM, first compound 1 µM
[29] = second compound 3.16 µM, first compound 3.16 µM
[30] = second compound 3.16 µM, first compound 10 µM
[31] = second compound 10 µM, first compound 0.0316 µM
[32] = second compound 10 µM, first compound 0.1 µM
[33] = second compound 10 µM, first compound 0.316 µM
[34] = second compound 10 µM, first compound 1 µM
[35] = second compound 10 µM, first compound 3.16 µM
[36] = second compound 10 µM, first compound 10 µM
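Further: spheroids exposed to agents for seven days before readout.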
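Wherever viability, T/C is given: percent viability relative to DMSO vehicle control taken as 100%.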

`CC1(C)CCC(CN2CCN(c3ccc(C(=O)NS(=O)(=O)c4ccc(NCC5CCOCC5)c([N+](=O)[O-])c4)c(Oc4cnc5[nH]ccc5c4)c3)CC2)=C(c2ccc(Cl)cc2)C1` + CC(Nc1ncnc2nc[nH]c12)c1cc2cccc(Cl)c2c(=O)n1-c1ccccc1 gave an IC50 (second compound 0.0316 µM) of 5.69 µM, an IC50 (second compound 0.1 µM) of 5.6 µM and an IC50 (second compound 0.316 µM) of 5.61 µM. The IC50 (second compound 1 µM) was 5.39 µM, the IC50 (second compound 3.16 µM) was 4.74 µM and the IC50 (second compound 10 µM) was 5.45 µM. The viability, T/C [1] was 87.4%, the viability, T/C [2] was 101% and the viability, T/C [3] was 95.4%. The viability, T/C [4] was 96.6%, the viability, T/C [5] was 96.2% and the viability, T/C [6] was 6.26%. It also gave a viability, T/C [7] of 89.9%, a viability, T/C [8] of 98.7% and a viability, T/C [9] of 87.5%. The viability, T/C [10] was 99.6%, the viability, T/C [11] was 106% and the viability, T/C [12] was 2.9%. For the same molecule, the viability, T/C [13] was 116%, the viability, T/C [14] was 92.6% and the viability, T/C [15] was 89.8%. The viability, T/C [16] was 95.4%, the viability, T/C [17] was 96.7% and the viability, T/C [18] was 2.85%. For the same molecule, the viability, T/C [19] was 96.5%, the viability, T/C [20] was 83.6% and the viability, T/C [21] was 103%. For the same molecule, the viability, T/C [22] was 90.3%, the viability, T/C [23] was 91.2% and the viability, T/C [24] was 2.36%. For the same molecule, the viability, T/C [25] was 81.8%, the viability, T/C [26] was 84.7% and the viability, T/C [27] was 98.8%. The viability, T/C [28] was 97.1%, the viability, T/C [29] was 76% and the viability, T/C [30] was 2.35%. The viability, T/C [31] was 79.6%, the viability, T/C [32] was 94% and the viability, T/C [33] was 86.8%. For the same molecule, the viability, T/C [34] was 94.7%, the viability, T/C [35] was 93.1% and the viability, T/C [36] was 5.61%.
`C[C@@H](NC(=O)c1ncnc(N)c1Cl)c1ncc(C(=O)Nc2cc(C(F)(F)F)c(Cl)cn2)s1` + CC(Nc1ncnc2nc[nH]c12)c1cc2cccc(Cl)c2c(=O)n1-c1ccccc1 showed an IC50 (second compound 0.0316 µM) greater than 10 µM, an IC50 (second compound 0.1 µM) greater than 10 µM and an IC50 (second compound 0.316 µM) greater than 10 µM. The IC50 (second compound 1 µM) was greater than 10 µM, the IC50 (second compound 3.16 µM) was greater than 10 µM and the IC50 (second compound 10 µM) was greater than 10 µM. It also gave a viability, T/C [1] of 110%, a viability, T/C [2] of 105% and a viability, T/C [3] of 109%. The viability, T/C [4] was 104%, the viability, T/C [5] was 105% and the viability, T/C [6] was 78.4%. For the same molecule, the viability, T/C [7] was 97.4%, the viability, T/C [8] was 105% and the viability, T/C [9] was 116%. It also gave a viability, T/C [10] of 106%, a viability, T/C [11] of 110% and a viability, T/C [12] of 101%. It also gave a viability, T/C [13] of 109%, a viability, T/C [14] of 120% and a viability, T/C [15] of 111%. It also gave a viability, T/C [16] of 95.4%, a viability, T/C [17] of 89.2% and a viability, T/C [18] of 98.5%. It also gave a viability, T/C [19] of 83.3%, a viability, T/C [20] of 92.9% and a viability, T/C [21] of 109%. The viability, T/C [22] was 116%, the viability, T/C [23] was 111% and the viability, T/C [24] was 93.7%. For the same molecule, the viability, T/C [25] was 106%, the viability, T/C [26] was 101% and the viability, T/C [27] was 97.7%. It also gave a viability, T/C [28] of 109%, a viability, T/C [29] of 109% and a viability, T/C [30] of 95.6%. It also gave a viability, T/C [31] of 87.8%, a viability, T/C [32] of 90.2% and a viability, T/C [33] of 101%. For the same molecule, the viability, T/C [34] was 97.7%, the viability, T/C [35] was 108% and the viability, T/C [36] was 97%.
For `Cn1ncnc1[C@H]1c2n[nH]c(=O)c3cc(F)cc(c23)N[C@@H]1c1ccc(F)cc1` + CC(Nc1ncnc2nc[nH]c12)c1cc2cccc(Cl)c2c(=O)n1-c1ccccc1, the IC50 (second compound 0.0316 µM) was greater than 0.1 µM, the IC50 (second compound 0.1 µM) was greater than 0.1 µM and the IC50 (second compound 0.316 µM) was greater than 0.1 µM. It also gave an IC50 (second compound 1 µM) greater than 0.1 µM, an IC50 (second compound 3.16 µM) greater than 0.1 µM and an IC50 (second compound 10 µM) greater than 0.1 µM. For the same molecule, the viability, T/C (second compound 0.0316 µM, first compound 0.000316 µM) was 90.9%, the viability, T/C (second compound 0.0316 µM, first compound 0.001 µM) was 82% and the viability, T/C (second compound 0.0316 µM, first compound 0.00316 µM) was 84.9%. For the same molecule, the viability, T/C (second compound 0.0316 µM, first compound 0.01 µM) was 87.8%, the viability, T/C [1] was 75.4% and the viability, T/C [2] was 69%. The viability, T/C (second compound 0.1 µM, first compound 0.000316 µM) was 99.7%, the viability, T/C (second compound 0.1 µM, first compound 0.001 µM) was 106% and the viability, T/C (second compound 0.1 µM, first compound 0.00316 µM) was 70.9%. For the same molecule, the viability, T/C (second compound 0.1 µM, first compound 0.01 µM) was 73.4%, the viability, T/C [7] was 74.1% and the viability, T/C [8] was 72.2%. It also gave a viability, T/C (second compound 0.316 µM, first compound 0.000316 µM) of 90%, a viability, T/C (second compound 0.316 µM, first compound 0.001 µM) of 94.7% and a viability, T/C (second compound 0.316 µM, first compound 0.00316 µM) of 70.3%. For the same molecule, the viability, T/C (second compound 0.316 µM, first compound 0.01 µM) was 76.7%, the viability, T/C [13] was 64.9% and the viability, T/C [14] was 70%. It also gave a viability, T/C (second compound 1 µM, first compound 0.000316 µM) of 85.7%, a viability, T/C (second compound 1 µM, first compound 0.001 µM) of 77.8% and a viability, T/C (second compound 1 µM, first compound 0.00316 µM) of 89%. The viability, T/C (second compound 1 µM, first compound 0.01 µM) was 84.2%, the viability, T/C [19] was 77.7% and the viability, T/C [20] was 54.1%. The viability, T/C (second compound 3.16 µM, first compound 0.000316 µM) was 79.9%, the viability, T/C (second compound 3.16 µM, first compound 0.001 µM) was 85.9% and the viability, T/C (second compound 3.16 µM, first compound 0.00316 µM) was 90.3%. It also gave a viability, T/C (second compound 3.16 µM, first compound 0.01 µM) of 82.4%, a viability, T/C [25] of 76.8% and a viability, T/C [26] of 76.5%. It also gave a viability, T/C (second compound 10 µM, first compound 0.000316 µM) of 89.7%, a viability, T/C (second compound 10 µM, first compound 0.001 µM) of 71.3% and a viability, T/C (second compound 10 µM, first compound 0.00316 µM) of 85.2%. It also gave a viability, T/C (second compound 10 µM, first compound 0.01 µM) of 92.3%, a viability, T/C [31] of 66.9% and a viability, T/C [32] of 72.2%.
